28 compounds from US8163728B2, “Pyrazoles” (Hoffmann-La Roche Inc., priority 2009, dated 2012) can be followed below.

The assay deals with T1, GABA A α5 (Homo sapiens, UniProt P18507+P31644).
T1 construct: expressed in transfected cells; host or cells: HEK293 cells, transiently transfected; membranes prepared from cell pellets
The experiment in a line: [3H]flumazenil competition binding, human GABA A α5β3γ2 receptors in HEK293 cell membranes. As to conditions: human receptor α5β3γ2 transiently transfected in HEK293; 0.5 nM [3H]flumazenil; 1 hour at 4° C.; means of two determinations; read-out: hKi GABA A α5. On the procedure:
The affinity of compounds at GABA A receptor subtypes was measured by competition for [3H]flumazenil (85 Ci/mmol; Roche) binding to HEK293 cells expressing rat (stably transfected) or human (transiently transfected) receptors of composition α1β3γ2, α2β3γ2, α3β3γ2 and α5β3γ2.
Cell pellets were suspended in Krebs-tris buffer (4.8 mM KCl, 1.2 mM CaCl2, 1.2 mM MgCl2, 120 mM NaCl, 15 mM Tris; pH 7.5; binding assay buffer), homogenized by polytron for ca. 20 sec on ice and centrifuged for 60 min at 4° C. (50000 g; Sorvall, rotor: SM24=20000 rpm). The cell pellets were re-suspended in Krebs-tris buffer and homogenized by polytron for ca. 15 sec on ice. Protein was measured (Bradford method, Bio-Rad) and aliquots of 1 mL were prepared and stored at −80° C.
Assays were incubated to equilibrium for 1 hour at 4° C. and harvested onto GF/C uni-filters (Packard) by filtration using a Packard harvester and washing with ice-cold wash buffer (50 mM Tris; pH 7.5). After drying, filter-retained radioactivity was detected by liquid scintillation counting. Ki values were calculated using Excel-Fit (Microsoft) and are the means of two determinations.

Take `CCNC(=O)c1cc(NCc2c(-c3ccc(F)cc3)noc2C)n[nH]1` [Example 155, 5-{[3-(4-Fluoro-phenyl)-5-methyl-isoxazol-4-ylmethyl]-amino}-2H-pyrazole-3-carboxylic acid ethylamide]: the Ki is 57.1 nM.
Regarding `Cc1onc(-c2ccc(F)cc2)c1COc1cc(C(=O)NC(C)C)[nH]n1` [Example 12, 5-[3-(4-Fluoro-phenyl)-5-methyl-isoxazol-4-ylmethoxy]-2H-pyrazole-3-carboxylic acid isopropylamide], the Ki was found to be 2.3 nM.
For `Cc1onc(-c2ccc(F)cc2)c1COc1cc(C(=O)NC(C)(C)CO)n(C)n1` [Example 55, 5-[3-(4-Fluoro-phenyl)-5-methyl-isoxazol-4-ylmethoxy]-2-methyl-2H-pyrazole-3-carboxylic acid (2-hydroxy-1,1-dimethyl-ethyl)-amide] the value was 29.6 nM; for `Cc1onc(-c2ccc(F)cc2)c1/C=C/c1cc(C(=O)NC(C)(C)CO)n(C)n1` [Example 143, 5-{(E)-2-[3-(4-Fluoro-phenyl)-5-methyl-isoxazol-4-yl]vinyl}-2-methyl-2H-pyrazole-3-carboxylic acid (2-hydroxy-1,1-dimethyl-ethyl)-amide], 7.4 nM.
In the case of `Cc1onc(-c2ccc(F)cc2)c1COc1cc(C(=O)N[C@H]2CCC[C@@H]2O)n(C)n1` [Example 73, (+5-[3-(4-Fluoro-phenyl)-5-methyl-isoxazol-4-ylmethoxy]-2-methyl-2H-pyrazole-3-carboxylic acid ((1R,2R)-2-hydroxy-cyclopentyl)-amideand/or 5-[3-(4-Fluoro-phenyl)-5-methyl-isoxazol-4-ylmethoxy]-2-methyl-2H-pyrazole-3-carboxylic acid ((18,28)-2-hydroxy-cyclopentyl)-amide], the Ki amounted to 9.4 nM.
With `Cn1nc(OCc2c(-c3ccc(F)cc3)noc2CO)cc1C(=O)N1CC2(COC2)C1` [Example 99, {5-[3-(4-Fluoro-phenyl)-5-hydroxymethyl-isoxazol-4-ylmethoxy]-2-methyl-2H-pyrazol-3-yl}-(2-oxa-6-aza-spiro[3.3]hept-6-yl)-methanone], the Ki stood at 24 nM.
For `Cc1onc(-c2ccccc2)c1COc1cc(C(=O)NN(C)C)[nH]n1` [Example 5, 5-(5-Methyl-3-phenyl-isoxazol-4-ylmethoxy)-2H-pyrazole-3-carboxylic acid N′,N′-dimethyl-hydrazide] the value was 14.6 nM.
In the case of `Cc1onc(-c2ccc(F)cn2)c1CNc1cc(C(=O)NC2(C)COC2)n(C)n1` [Example 167, 3-((3-(5-Fluoropyridin-2-yl)-5-methylisoxazol-4-yl)methylamino)-1-methyl-N-(3-methyloxetan-3-yl)-1H-pyrazole-5-carboxamide], the Ki worked out at 16.2 nM.
With `Cc1onc(-c2ccccn2)c1COc1cc(C(=O)NC(C)CO)n(C)n1` (stereo in doubt) [Example 80, 2-Methyl-5-(5-methyl-3-pyridin-2-yl-isoxazol-4-ylmethoxy)-2H-pyrazole-3-carboxylic acid ((S)-2-hydroxy-1-methyl-ethyl)-amide], the Ki was found to be 23.5 nM.
`Cc1onc(-c2ccc(F)cc2)c1CNc1cc(C(=O)NC(C)C)n(C)n1` [Example 151, 5-{[3-(4-Fluoro-phenyl)-5-methyl-isoxazol-4-ylmethyl]-amino}-2-methyl-2H-pyrazole-3-carboxylic acid isopropylamide]: the Ki is 13.6 nM.
For `Cc1onc(-c2ccc(F)cc2)c1/C=C/c1cc(C(=O)NC(C)C)n(C)n1` [Example 122, 5-{(E)-2-[3-(4-Fluoro-phenyl)-5-methyl-isoxazol-4-yl]vinyl}-2-methyl-2H-pyrazole-3-carboxylic acid isopropylamide] the value was 1.6 nM; for `CCC(CO)NC(=O)c1cc(OCc2c(-c3ccc(F)cc3)noc2C)nn1C` (single isomer, unassigned; (+)) [Example 70, (+)-5-[3-(4-Fluoro-phenyl)-5-methyl-isoxazol-4-ylmethoxy]-2-methyl-2H-pyrazole-3-carboxylic acid ((S or R)-1-hydroxymethyl-propyl)-amide], 16.7 nM.
Regarding `CCCCc1noc(C)c1COc1cc(C(=O)NC2CCOC2)[nH]n1` (racemic) [Example 28, Rac-5-(3-Butyl-5-methyl-isoxazol-4-ylmethoxy)-2H-pyrazole-3-carboxylic acid (tetrahydrofuran-3-yl)-amide], the Ki came to 5.4 nM.
Under `CC(C)NC(=O)c1cc(OCc2c(-c3ccc(F)cc3)noc2CO)nn1C` [Example 92, 5-[3-(4-Fluoro-phenyl)-5-hydroxymethyl-isoxazol-4-ylmethoxy]-2-methyl-2H-pyrazole-3-carboxylic acid isopropylamide] stands 9.5 nM; under `Cc1onc(-c2ccc(F)cc2)c1COc1cc(C(=O)NC2CCOCC2)[nH]n1` [Example 13, 5-[3-(4-Fluoro-phenyl)-5-methyl-isoxazol-4-ylmethoxy]-2H-pyrazole-3-carboxylic acid (tetrahydro-pyran-4-yl)-amide], 0.5 nM; under `CCCCc1noc(C)c1COc1cc(C(=O)NC2CCOC(C)(C)C2)[nH]n1` (racemic) [Example 37, Rac-5-(3-Butyl-5-methyl-isoxazol-4-ylmethoxy)-2H-pyrazole-3-carboxylic acid (2,2-dimethyl-tetrahydro-pyran-4-yl)-amide], 22 nM.
Under `Cc1onc(-c2ccc(F)cc2)c1CNc1cc(C(=O)NC2(C)COC2)n(C)n1` [Example 148, 5-{[3-(4-Fluoro-phenyl)-5-methyl-isoxazol-4-ylmethyl]-amino}-2-methyl-2H-pyrazole-3-carboxylic acid (3-methyl-oxetan-3-yl)-amide] stands 5.4 nM; under `Cn1nc(OCc2c(-c3ccc(Cl)cc3)noc2CO)cc1C(=O)NCC(F)(F)F` [Example 103, 5-[3-(4-Chloro-phenyl)-5-hydroxymethyl-isoxazol-4-ylmethoxy]-2-methyl-2H-pyrazole-3-carboxylic acid (2,2,2-trifluoro-ethyl)-amide], 5.7 nM; under `Cc1onc(-c2ccc(F)cn2)c1COc1cc(C(=O)NN2CCCC2)[nH]n1` [Example 24, 5-[3-(5-Fluoro-pyridin-2-yl)-5-methyl-isoxazol-4-ylmethoxy]-2H-pyrazole-3-carboxylic acid pyrrolidin-1-ylamide], 3.5 nM.
In the case of `Cc1onc(-c2ccc(F)cc2)c1COc1cc(C(=O)NC2CCOCC2)n(C)n1` [Example 53, 5-[3-(4-Fluoro-phenyl)-5-methyl-isoxazol-4-ylmethoxy]-2-methyl-2H-pyrazole-3-carboxylic acid (tetrahydro-pyran-4-yl)-amide], the Ki was 1.2 nM.
Under `Cc1onc(-c2ccc(F)cn2)c1COc1cc(C(=O)NC2CCOC2)[nH]n1` (racemic) [Example 18, Rac-5-[3-(5-Fluoro-pyridin-2-yl)-5-methyl-isoxazol-4-ylmethoxy]-2H-pyrazole-3-carboxylic acid (tetrahydro-furan-3-yl)-amide] stands 1.2 nM; under `Cc1onc(-c2ccc(F)cc2)c1CNc1cc(C(N)=O)n(C)n1` [Example 145, 5-{[3-(4-Fluoro-phenyl)-5-methyl-isoxazol-4-ylmethyl]-amino}-2-methyl-2H-pyrazole-3-carboxylic acid amide], 69.6 nM; under `Cc1onc(-c2ccc(F)cc2)c1/C=C/c1cc(C(=O)N2CC3(COC3)C2)n(C)n1` [Example 135, (5-{(E)-2-[3-(4-Fluoro-phenyl)-5-methyl-isoxazol-4-yl]-vinyl}-2-methyl-2H-pyrazol-3-yl)-(2-oxa-6-aza-spiro[3.3]hept-6-yl)-methanone], 2.4 nM.
With `Cc1onc(-c2ccccc2)c1COc1cc(C(=O)NC2CCOCC2)[nH]n1` [Example 3, 5-(5-Methyl-3-phenyl-isoxazol-4-ylmethoxy)-2H-pyrazole-3-carboxylic acid (tetrahydro-pyran-4-yl)-amide], the Ki came out at 3.1 nM.
For `CCCCc1noc(C)c1COc1cc(C(=O)NC(C)C)[nH]n1` [Example 32, 5-(3-Butyl-5-methyl-isoxazol-4-ylmethoxy)-2H-pyrazole-3-carboxylic acid isopropylamide] the value was 15.7 nM; for `Cc1onc(-c2ccc(F)cc2)c1COc1cc(C(=O)NCC(O)C(F)(F)F)n(C)n1` (racemic) [Example 59, Rac-5-[3-(4-Fluoro-phenyl)-5-methyl-isoxazol-4-ylmethoxy]-2-methyl-2H-pyrazole-3-carboxylic acid (3,3,3-trifluoro-2-hydroxy-propyl)-amide], 1.8 nM; for `Cc1onc(-c2ccccn2)c1COc1cc(C(=O)N[C@@H](C)CO)n[nH]1` [Example 16, 5-(5-Methyl-3-pyridin-2-yl-isoxazol-4-ylmethoxy)-1H-pyrazole-3-carboxylic acid ((S)-2-hydroxy-1-methyl-ethyl)-amide], 11.1 nM.
Regarding `Cc1onc(-c2ccccn2)c1COc1cc(C(=O)NC2CCOCC2)n[nH]1` [Example 15, 5-(5-Methyl-3-pyridin-2-yl-isoxazol-4-ylmethoxy)-1H-pyrazole-3-carboxylic acid (tetrahydropyran-4-yl)-amide], the Ki stood at 2.5 nM.
